Patent publication US9597407B2, “Targeted antimicrobial moieties” (C3 Jian, Inc., priority 2009, dated 2017)
Entries after “also recorded” stand apart in the source; their conditions may differ.

Key:
bacteria = experiment: Binding of targeting peptides to microorganisms (Table 3); settings: preferably 1x PBS; for Target(s) (microorganism bound by the targeting peptide) / Target(s) (microorganisms bound by the targeting peptide): peptide binding in aqueous buffers that varied depending on peptide solubility
microorganisms = experiment: Morphology, biofilm and growth disruption by peptides (Table 5); type: cell-based; parameters: key: A: Peptide aggregates; B: Less hyphal formation; Clumps; Diffuse clumps and small polyps; F: Diffuse growth; H: Thin; I: Growth inhibition; Microcolony formation; Rippled; Small polyps; Thick; W: Halo formation on top, microlonies on bottom
Source text: In certain embodiments peptides that induce alterations in phenotype or other biological activities can also be used as antimicrobial effector moieties.

[1] = microorganism bound by the targeting peptide, binding in aqueous buffers chosen by peptide solubility
[2] = microorganism the targeting peptide binds, binding in aqueous buffers that varied with peptide solubility

PF-658 (chain 1 PTTPPPTTPPEIPTGGTVIST; chain 2 PTTPPPTTPPEIPTGGTVIST; Peptide with targeting and/or antimicrobial activity)
Target(s) (microorganism bound by the targeting peptide) (bacteria): Mycobacteria spp | Organism, effect (morphology, biofilm and growth disruption) (microorganisms; MRSA): MRSA (R) | Organism, effect (morphology, biofilm and growth disruption) (microorganisms; S. pneumoniae): S. pneumoniae (H)

PF-430 (AVVCGYLAYTATS; Peptide with targeting and/or antimicrobial activity)
Target(s) (microorganisms bound by the targeting peptide) (bacteria): S. epidermidis; also recorded: M. luteus; also recorded: E. coli; also recorded: S. pneumoniae; also recorded: E. faecalis; also recorded: C. jeikeium; also recorded: C. jejuni | Organism, effect (morphology, biofilm and growth disruption) (microorganisms; MRSA): MRSA (M) | Organism, effect (morphology, biofilm and growth disruption) (microorganisms; S. epidermidis): S. epidermidis (M) | Organism, effect (morphology, biofilm and growth disruption) (microorganisms; S. pneumoniae): S. pneumoniae (M)

PF-C075 (KALVISVFAIVFSIIFVKFFYWRDKK; Peptide with targeting and/or antimicrobial activity)
Target(s) (microorganism bound by the targeting peptide) (bacteria): A. naeslundii; also recorded: F. nucleatum; also recorded: P. gingivalis; also recorded: S. mutans; also recorded: T. denticola | Organism, effect (morphology, biofilm and growth disruption) (microorganisms; F. nucleatum): F. nucleatum (T) | Organism, effect (morphology, biofilm and growth disruption) (microorganisms; P. gingivalis): P. gingivalis (R) | Organism, effect (morphology, biofilm and growth disruption) (microorganisms; S. mutans): S. mutans (F)

VMQSLYVKPPLILVTKLAQQN [PF-511]
Target(s) (microorganisms bound by the targeting peptide) (bacteria): E. coli; also recorded: P. aeruginosa; also recorded: S. pneumoniae; also recorded: C. jeikeium | Organism, effect (morphology, biofilm and growth disruption) (microorganisms; S. pneumoniae): S. pneumoniae (H)

PF-660 (chain 1 TDPQATAAPRRRTSPR; chain 2 TDPQATAAPRRRTSPR; Peptide with targeting and/or antimicrobial activity)
Target(s) (microorganism bound by the targeting peptide) (bacteria): Mycobacteria spp | Organism, effect (morphology, biofilm and growth disruption) (microorganisms; S. pneumoniae): S. pneumoniae (H)

PF-401 (YWLSRVTTGHSFAFEKPVPLSLTIK; Peptide with targeting and/or antimicrobial activity)
Target(s) (microorganisms bound by the targeting peptide) (bacteria): S. epidermidis and E. coli and P. aeruginosa and MRSA and E. faecalis and C. jejuni | Organism, effect (microorganisms; E. coli): E. coli (R) | Organism, effect (microorganisms; E. faecalis): E. faecalis (C) | Organism, effect (microorganisms; MRSA): MRSA (C) | Organism, effect (microorganisms; S. epidermidis): S. epidermidis (C)

PF-645 (chain 1 SNSVQQG; chain 2 SNSVQQG; Peptide with targeting and/or antimicrobial activity)
Target(s) (microorganism bound by the targeting peptide) (bacteria): Mycobacteria spp | Organism, effect (morphology, biofilm and growth disruption) (microorganisms; C. albicans): C. albicans (B) | Organism, effect (morphology, biofilm and growth disruption) (microorganisms; S. pneumoniae): S. pneumoniae (I)

PF-685 (chain 1 PTLWLACL; chain 2 PTLWLACL; Peptide with targeting and/or antimicrobial activity)
Target(s) (microorganism bound by the targeting peptide) (bacteria): Mycobacteria spp | Organism, effect (morphology, biofilm and growth disruption) (microorganisms; C. jeikeium): C. jeikeium (R) | Organism, effect (morphology, biofilm and growth disruption) (microorganisms; E. faecalis): E. faecalis (R) | Organism, effect (morphology, biofilm and growth disruption) (microorganisms; MRSA): MRSA (M) | Organism, effect (morphology, biofilm and growth disruption) (microorganisms; S. epidermidis): S. epidermidis (M) | Organism, effect (morphology, biofilm and growth disruption) (microorganisms; S. pneumoniae): S. pneumoniae (M)

PF-629 (chain 1 GLAAIATVFALY; chain 2 GLAAIATVFALY; Peptide with targeting and/or antimicrobial activity)
Target(s) (microorganism bound by the targeting peptide) (bacteria): S. epidermidis and P. aeruginosa and C. albicans and MRSA and S. pneumoniae and E. faecalis and C. jeikeium | Organism, effect (morphology, biofilm and growth disruption) (microorganisms; C. jeikeium): C. jeikeium (R) | Organism, effect (morphology, biofilm and growth disruption) (microorganisms; E. faecalis): E. faecalis (R) | Organism, effect (morphology, biofilm and growth disruption) (microorganisms; MRSA): MRSA (D) | Organism, effect (morphology, biofilm and growth disruption) (microorganisms; S. epidermidis): S. epidermidis (C) | Organism, effect (morphology, biofilm and growth disruption) (microorganisms; S. pneumoniae): S. pneumoniae (M)

PF-651 (chain 1 PRWPTGAGRHR; chain 2 PRWPTGAGRHR; Peptide with targeting and/or antimicrobial activity)
Target(s) (microorganism bound by the targeting peptide) (bacteria): Mycobacteria spp | Organism, effect (morphology, biofilm and growth disruption) (microorganisms; S. pneumoniae): S. pneumoniae (H)

LSPRPIIVSRRSRADNNNDWSR [PF-143]
Target(s) (bacteria; [1]): S. epidermidis and MRSA and C. jeikeium | Organism, effect (microorganisms; P. aeruginosa): P. aeruginosa (C)

PF-C084 (FFSVIFLFGLNYLICNSPLFNILR; Peptide with targeting and/or antimicrobial activity)
Target(s) (microorganism bound by the targeting peptide) (bacteria): A. naeslundii; also recorded: F. nucleatum; also recorded: P. gingivalis; also recorded: S. mutans | Organism, effect (morphology, biofilm and growth disruption) (microorganisms; F. nucleatum): F. nucleatum (T) | Organism, effect (morphology, biofilm and growth disruption) (microorganisms; P. gingivalis): P. gingivalis (R) | Organism, effect (morphology, biofilm and growth disruption) (microorganisms; S. mutans): S. mutans (F)

PF-224 (DYFYITLSQKNTF; Peptide with targeting and/or antimicrobial activity)
Target(s) (bacteria; [1]): S. epidermidis; also recorded: P. aeruginosa; also recorded: A. baumannii | Organism, effect (microorganisms; M. luteus): M. luteus (T)

PF-297 (ISKGIDDIVYVINKILSIGNIFKIIKRK; Peptide with targeting and/or antimicrobial activity)
Target(s) (bacteria; [1]): S. epidermidis; also recorded: B. subtilis; also recorded: B. fragilis | Organism, effect (microorganisms; B. subtilis): B. subtilis (C) | Organism, effect (microorganisms; S. epidermidis): S. epidermidis (C)

PF-292 (SFVSTTVRLIFEESKRYKF; Peptide with targeting and/or antimicrobial activity)
Target(s) (bacteria; [1]): S. epidermidis; also recorded: B. subtilis; also recorded: B. fragilis | Organism, effect (microorganisms; B. subtilis): B. subtilis (C) | Organism, effect (microorganisms; S. epidermidis): S. epidermidis (C)

PF-C055 (YNLSIYIYFLHTITIAGLITLPFII; Peptide with targeting and/or antimicrobial activity)
Target(s) (microorganism bound by the targeting peptide) (bacteria): A. naeslundii; also recorded: F. nucleatum; also recorded: P. gingivalis; also recorded: S. mutans | Organism, effect (morphology, biofilm and growth disruption) (microorganisms; F. nucleatum): F. nucleatum (T) | Organism, effect (morphology, biofilm and growth disruption) (microorganisms; S. mutans): S. mutans (I)

PF-656 (chain 1 RGMFVPFHDVDCVQ; chain 2 RGMFVPFHDVDCVQ; Peptide with targeting and/or antimicrobial activity)
Target(s) (microorganism bound by the targeting peptide) (bacteria): Mycobacteria spp | Organism, effect (morphology, biofilm and growth disruption) (microorganisms; MRSA): MRSA (R)

PF-602 (LEKEKKEYIEKLFKTK; Peptide with targeting and/or antimicrobial activity)
Target(s) (microorganism bound by the targeting peptide) (bacteria): P. mirabilis; also recorded: C. jeikeium | Organism, effect (morphology, biofilm and growth disruption) (microorganisms; E. faecalis): E. faecalis (A)

LHVIRPRPELSELKFPITKILKVNKQGLKK [PF-752]
Target(s) (microorganism bound by the targeting peptide) (bacteria): S. epidermidis and E. coli and MRSA and S. pneumoniae and E. faecalis | Organism, effect (morphology, biofilm and growth disruption) (microorganisms; S. pneumoniae): S. pneumoniae (C)

PF-002 (chain 1 NDDAQ; chain 2 NDDAQ; Peptide with targeting and/or antimicrobial activity)
Target(s) (bacteria; [2]): S. epidermidis; also recorded: P. mirabilis; also recorded: C. albicans; also recorded: C. jeikeium; also recorded: C. jejuni | Organism, effect (microorganisms; B. subtilis): B. subtilis (R) | Organism, effect (microorganisms; S. pneumoniae): S. pneumoniae (H)

PF-434 (GQLLADKRPARDYNRK; Peptide with targeting and/or antimicrobial activity)
Target(s) (microorganisms bound by the targeting peptide) (bacteria): S. epidermidis; also recorded: M. luteus; also recorded: S. pneumoniae; also recorded: C. jeikeium | Organism, effect (morphology, biofilm and growth disruption) (microorganisms; S. pneumoniae): S. pneumoniae (S)

PF-604 (LMEQVEV; Peptide with targeting and/or antimicrobial activity)
Target(s) (microorganism bound by the targeting peptide) (bacteria): S. epidermidis; also recorded: C. albicans; also recorded: C. jeikeium | Organism, effect (morphology, biofilm and growth disruption) (microorganisms; E. faecalis): E. faecalis (A)

PF-249 (INSRYKISF; Peptide with targeting and/or antimicrobial activity)
Target(s) (bacteria; [1]): S. epidermidis; also recorded: M. luteus | Organism, effect (microorganisms; M. luteus): M. luteus (R)

PF-C145 (YGKESDP; Peptide with targeting and/or antimicrobial activity)
Target(s) (microorganism bound by the targeting peptide) (bacteria): A. naeslundii; also recorded: F. nucleatum; also recorded: P. gingivalis; also recorded: S. mutans; also recorded: T. denticola | Organism, effect (morphology, biofilm and growth disruption) (microorganisms; F. nucleatum): F. nucleatum (C) | Organism, effect (morphology, biofilm and growth disruption) (microorganisms; S. mutans): S. mutans (I)

PF-692 (chain 1 GVAREDPLEPDPLAPIIDDSR; chain 2 GVAREDPLEPDPLAPIIDDSR; Peptide with targeting and/or antimicrobial activity)
Target(s) (microorganism bound by the targeting peptide) (bacteria): Mycobacteria spp | Organism, effect (morphology, biofilm and growth disruption) (microorganisms; MRSA): MRSA (R)

ALDCSEQSVILWYETILDKIVGVIK [PF-028]
Target(s) (bacteria; [2]): S. epidermidis and M. luteus and MRSA | Organism, effect (microorganisms; C. jeikeium): C. jeikeium (M) | Organism, effect (microorganisms; MRSA): MRSA (R) | Organism, effect (microorganisms; S. epidermidis): S. epidermidis (M)

PF-C180 (TVEELDKAFTWGAAAALAIGVIAINVGLAAGYCYNNNDVF; Peptide with targeting and/or antimicrobial activity)
Target(s) (microorganism bound by the targeting peptide) (bacteria): F. nucleatum; also recorded: P. gingivalis; also recorded: S. mutans; also recorded: T. denticola | Organism, effect (morphology, biofilm and growth disruption) (microorganisms; P. gingivalis): P. gingivalis (R) | Organism, effect (morphology, biofilm and growth disruption) (microorganisms; S. mutans): S. mutans (S)

PF-667 (chain 1 PAHQRLRIDQRLVADRDMVQDYES; chain 2 PAHQRLRIDQRLVADRDMVQDYES; Peptide with targeting and/or antimicrobial activity)
Target(s) (microorganism bound by the targeting peptide) (bacteria): Mycobacteria spp | Organism, effect (morphology, biofilm and growth disruption) (microorganisms; E. faecalis): E. faecalis (R) | Organism, effect (morphology, biofilm and growth disruption) (microorganisms; MRSA): MRSA (R) | Organism, effect (morphology, biofilm and growth disruption) (microorganisms; S. epidermidis): S. epidermidis (R) | Organism, effect (morphology, biofilm and growth disruption) (microorganisms; S. pneumoniae): S. pneumoniae (R)

LIQKGLNQTFIVVIRLNNFIKKS [PF-013]
Target(s) (bacteria; [2]): M. luteus and P. mirabilis and E. coli and P. aeruginosa and MRSA and S. pneumoniae and C. jeikeium and C. jejuni | Organism, effect (microorganisms; C. jeikeium): C. jeikeium (D) | Organism, effect (microorganisms; M. luteus): M. luteus (D) | Organism, effect (microorganisms; MRSA): MRSA (R) | Organism, effect (microorganisms; S. epidermidis): S. epidermidis (C)
